Reference: ChEMBL document CHEMBL1201862, “PubChem BioAssay data set” (2004)
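Results reflect a 48-hour exposure of cells in 96-well plates to compound at five concentrations. The concentration for 50% growth inhibition is given as GI50.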 Active and inactive are the calls of the source. Cut-off read from the data, not from the text of the source: active = GI50 up to about 1.1 µM and inactive = higher.

Key:
Test in all cases: NCI anticancer screen, dose series, 48 h
[1] = tested on: OVCAR-3
[2] = tested on: HOP-62
[3] = tested on: OVCAR-5
[4] = tested on: NCI-H226
[5] = tested on: IGROV-1
[6] = tested on: COLO 205
[7] = tested on: OVCAR-8
[8] = tested on: SNB-19
[9] = tested on: KM12
[10] = tested on: SK-OV-3
[11] = tested on: BT-549
[12] = tested on: MDA-N
[13] = tested on: A498
[14] = tested on: SK-MEL-28
[15] = tested on: A549
[16] = tested on: SF-268
[17] = tested on: SK-MEL-5
[18] = tested on: Hs-578T
[19] = tested on: HCT-116
[20] = tested on: NCI/ADR-RES
[21] = tested on: U-251
[22] = tested on: CAKI-1
[23] = tested on: HT-29
[24] = tested on: LOX IMVI
[25] = tested on: M14
[26] = tested on: RXF 393
[27] = tested on: UO-31
[28] = tested on: OVCAR-4
[29] = tested on: MDA-MB-435
[30] = tested on: EKVX
[31] = tested on: TK-10
[32] = tested on: NCI-H23
[33] = tested on: Malme-3M
[34] = tested on: SNB-75
[35] = tested on: UACC-257
[36] = tested on: HCT-15
[37] = tested on: K562
[38] = tested on: MOLT-4
[39] = tested on: RPMI-8226
[40] = tested on: NCI-H460
[41] = tested on: UACC-62
[42] = tested on: SR
[43] = tested on: PC-3
[44] = tested on: SF-539
[45] = tested on: MDA-MB-231
[46] = tested on: ACHN
[47] = tested on: SN12C
[48] = tested on: T47D
[49] = tested on: CCRF-CEM
[50] = tested on: SF-295
[51] = tested on: SK-MEL-2
[52] = tested on: NCI-H522
[53] = tested on: MCF7
[54] = tested on: 786-0
[55] = tested on: HCC 2998
[56] = tested on: SW-620
[57] = tested on: DU-145

Measured: GI50

CCN(CC)CCNc1n[n+]([O-])c2cc([N+](=O)[O-])ccc2[n+]1[O-]
active: [1] 849 nM | [2] 0.385 µM | [5] 0.132 µM | [6] 0.348 µM | [7] 0.391 µM | [9] 0.543 µM | [10] 0.729 µM | [12] 0.562 µM | [13] 1.08 µM | [15] 0.678 µM | [16] 0.661 µM | [17] 0.362 µM | [19] 0.318 µM | [20] 1.11 µM | [21] 0.701 µM | [22] 0.204 µM | [23] 0.252 µM | [24] 0.467 µM | [25] 0.423 µM | [28] 0.828 µM | [29] 0.826 µM
inactive: [3] 1.47 µM | [4] 1.87 µM | [8] 1.28 µM | [11] 1.81 µM | [14] 5.35 µM | [18] 3.11 µM | [26] 1.47 µM | [27] 1.49 µM | [30] 1.9 µM

CCOP(=O)(OCC)[C@H](O)c1ccsc1
inactive: [31] > 100 µM | [2] > 100 µM | [32] > 100 µM | [3] > 100 µM | [33] > 100 µM | [34] > 100 µM | [4] > 100 µM | [35] > 100 µM | [37] > 100 µM | [38] > 100 µM | [5] > 100 µM | [39] > 100 µM | [6] > 100 µM | [7] > 100 µM | [8] > 100 µM | [40] > 100 µM | [41] > 100 µM | [42] > 100 µM | [43] > 100 µM | [44] > 100 µM | [9] > 100 µM | [10] > 100 µM | [11] > 100 µM | [12] > 100 µM | [13] > 100 µM | [45] > 100 µM | [46] > 100 µM | [47] > 100 µM | [48] > 100 µM | [49] > 100 µM | [50] > 100 µM | [51] > 100 µM | [14] > 100 µM | [52] > 100 µM | [15] > 100 µM | [16] > 100 µM | [17] > 100 µM | [53] > 100 µM | [19] > 100 µM | [54] > 100 µM | [55] > 100 µM | [20] > 100 µM | [56] > 100 µM | [21] > 100 µM | [22] > 100 µM | [23] > 100 µM | [24] > 100 µM | [25] > 100 µM | [57] > 100 µM | [26] > 100 µM | [27] > 100 µM | [28] > 100 µM | [29] > 100 µM | [30] > 100 µM
> 100 µM: [36]
